#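 Where inhibition never reached the appropriate level, the endpoint shown equals the highest concentration tested. Otherwise, values were interpolated linearly from a five-concentration, 48-hour dose response in 96-well plates. GI50 = concentration required for 50% inhibition of growth. At the TGI there is no net growth.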
# Tests used:
# Assay in all cases: DTP human tumour cell line panel, 48 h
# [1] = system: 786-0 renal
# [2] = system: A498 renal
# [3] = system: A549 NSCLC
# [4] = system: ACHN renal
# [5] = system: BT-549 breast
# [6] = system: CAKI-1 renal
# [7] = system: CCRF-CEM leukemia
# [8] = system: COLO 205 colon
# [9] = system: DU-145 prostate
# [10] = system: HCC-2998 colon
# [11] = system: HCT-116 colon
# [12] = system: HCT-15 colon
# [13] = system: HL-60(TB) leukemia
# [14] = system: HOP-62 NSCLC
# [15] = system: HOP-92 NSCLC
# [16] = system: HS 578T breast
# [17] = system: HT29 colon
# [18] = system: IGROV1 ovarian
# [19] = system: K-562 leukemia
# [20] = system: KM12 colon
# [21] = system: LOX IMVI melanoma
# [22] = system: M14 melanoma
# [23] = system: MALME-3M melanoma
# [24] = system: MCF7 breast
# [25] = system: MDA-MB-231 breast
# [26] = system: MDA-MB-435
# [27] = system: MOLT-4 leukemia
# [28] = system: NCI-H226 lung
# [29] = system: NCI-H23 lung
# [30] = system: NCI-H460 lung
# [31] = system: NCI-H522 lung
# [32] = system: NCI/ADR-RES ovarian
# [33] = system: OVCAR-3 ovarian
# [34] = system: OVCAR-4 ovarian
# [35] = system: OVCAR-5 ovarian
# [36] = system: OVCAR-8 ovarian
# [37] = system: PC-3 prostate
# [38] = system: RPMI-8226 leukemia
# [39] = system: RXF 393 renal
# [40] = system: SF-268 CNS
# [41] = system: SF-295 CNS
# [42] = system: SF-539 CNS
# [43] = system: SK-MEL-2 melanoma
# [44] = system: SK-MEL-28 melanoma
# [45] = system: SK-MEL-5 melanoma
# [46] = system: SK-OV-3 ovarian
# [47] = system: SN12C renal
# [48] = system: SNB-19 CNS
# [49] = system: SNB-75 CNS
# [50] = system: SR leukemia
# [51] = system: SW-620 colon
# [52] = system: T-47D breast
# [53] = system: TK-10 renal
# [54] = system: U251 CNS
# [55] = system: UACC-257 melanoma
# [56] = system: UACC-62 melanoma
# [57] = system: UO-31 renal
compound,measurement,setting,value
COc1ccc(-n2c(SCc3cc(OC)c(OC)c(OC)c3)nc3ccc(C)cc3c2=O)c(OC)c1,GI50,[1],4.99 µM
same,TGI,[1],> 100 µM
same,GI50,[2],2.25 µM
same,TGI,[2],40.3 µM
same,GI50,[3],4.18 µM
same,TGI,[3],> 100 µM
same,GI50,[4],7.49 µM
same,TGI,[4],> 100 µM
same,GI50,[5],4.31 µM
same,TGI,[5],> 100 µM
same,GI50,[6],2.97 µM
same,TGI,[6],> 100 µM
same,GI50,[7],2.38 µM
same,TGI,[7],6.69 µM
same,GI50,[8],3.87 µM
same,TGI,[8],11.9 µM
same,GI50,[9],3.72 µM
same,TGI,[9],> 100 µM
same,GI50,[10],6.75 µM
same,TGI,[10],> 100 µM
same,GI50,[11],3.85 µM
same,TGI,[11],> 100 µM
same,GI50,[12],4.2 µM
same,TGI,[12],> 100 µM
same,GI50,[13],2.14 µM
same,TGI,[13],4.77 µM
same,GI50,[14],18.8 µM
same,TGI,[14],> 100 µM
same,GI50,[15],2.58 µM
same,TGI,[15],> 100 µM
same,GI50,[16],3.31 µM
same,TGI,[16],> 100 µM
same,GI50,[17],4.04 µM
same,TGI,[17],> 100 µM
same,GI50,[18],7.2 µM
same,TGI,[18],> 100 µM
same,GI50,[19],2.99 µM
same,TGI,[19],> 100 µM
same,GI50,[20],3.42 µM
same,TGI,[20],> 100 µM
same,GI50,[21],5.23 µM
same,TGI,[21],> 100 µM
same,GI50,[22],2.7 µM
same,TGI,[22],8.55 µM
same,GI50,[23],2.97 µM
same,TGI,[23],> 100 µM
same,GI50,[24],3.23 µM
same,TGI,[24],> 100 µM
same,GI50,[25],4.15 µM
same,TGI,[25],> 100 µM
same,GI50,[26],1.05 µM
same,TGI,[26],3.07 µM
same,GI50,[27],3.15 µM
same,TGI,[27],> 100 µM
same,GI50,[28],> 100 µM
same,TGI,[28],> 100 µM
same,GI50,[29],5.24 µM
same,TGI,[29],> 100 µM
same,GI50,[30],3.68 µM
same,TGI,[30],> 100 µM
same,GI50,[31],3.58 µM
same,TGI,[31],72.7 µM
same,GI50,[32],2.68 µM
same,TGI,[32],> 100 µM
same,GI50,[33],2.84 µM
same,TGI,[33],7.04 µM
same,GI50,[34],4.65 µM
same,TGI,[34],> 100 µM
same,GI50,[35],7.93 µM
same,TGI,[35],> 100 µM
same,GI50,[36],5.14 µM
same,TGI,[36],> 100 µM
same,GI50,[37],3.63 µM
same,TGI,[37],> 100 µM
same,GI50,[38],2.44 µM
same,TGI,[38],> 100 µM
same,GI50,[39],4 µM
same,TGI,[39],> 100 µM
same,GI50,[40],7.88 µM
same,TGI,[40],> 100 µM
same,GI50,[41],3.22 µM
same,TGI,[41],> 100 µM
same,GI50,[42],2.88 µM
same,TGI,[42],7.82 µM
same,GI50,[43],3.73 µM
same,TGI,[43],85.1 µM
same,GI50,[44],5.79 µM
same,TGI,[44],> 100 µM
same,GI50,[45],3.39 µM
same,TGI,[45],> 100 µM
same,GI50,[46],4.96 µM
same,TGI,[46],> 100 µM
same,GI50,[47],5.1 µM
same,TGI,[47],> 100 µM
same,GI50,[48],6.99 µM
same,TGI,[48],> 100 µM
same,GI50,[49],3.14 µM
same,TGI,[49],> 100 µM
same,GI50,[50],1.87 µM
same,TGI,[50],25.5 µM
same,GI50,[51],4.49 µM
same,TGI,[51],> 100 µM
same,GI50,[52],6.39 µM
same,TGI,[52],> 100 µM
same,GI50,[53],93.8 µM
same,TGI,[53],> 100 µM
same,GI50,[54],4.86 µM
same,TGI,[54],> 100 µM
same,GI50,[55],7.81 µM
same,TGI,[55],> 100 µM
same,GI50,[56],5.19 µM
same,TGI,[56],> 100 µM
same,GI50,[57],2.76 µM
same,TGI,[57],> 100 µM
N#Cc1c(C(=O)c2ccccc2)cnn1-c1ccccc1,GI50,[1],> 25 µM
same,TGI,[1],> 25 µM
same,GI50,[2],> 25 µM
same,TGI,[2],> 25 µM
same,GI50,[3],> 25 µM
same,TGI,[3],> 25 µM
same,GI50,[4],> 25 µM
same,TGI,[4],> 25 µM
same,GI50,[5],> 25 µM
same,TGI,[5],> 25 µM
same,GI50,[6],> 25 µM
same,TGI,[6],> 25 µM
same,GI50,[7],> 25 µM
same,TGI,[7],> 25 µM
same,GI50,[8],> 25 µM
same,TGI,[8],> 25 µM
same,GI50,[9],> 25 µM
same,TGI,[9],> 25 µM
same,GI50,[10],> 25 µM
same,TGI,[10],> 25 µM
same,GI50,[11],> 25 µM
same,TGI,[11],> 25 µM
same,GI50,[12],> 25 µM
same,TGI,[12],> 25 µM
same,GI50,[13],> 25 µM
same,TGI,[13],> 25 µM
same,GI50,[14],> 25 µM
same,TGI,[14],> 25 µM
same,GI50,[15],> 25 µM
same,TGI,[15],> 25 µM
same,GI50,[16],> 25 µM
same,TGI,[16],> 25 µM
same,GI50,[17],> 25 µM
same,TGI,[17],> 25 µM
same,GI50,[18],> 25 µM
same,TGI,[18],> 25 µM
same,GI50,[19],> 25 µM
same,TGI,[19],> 25 µM
same,GI50,[20],> 25 µM
same,TGI,[20],> 25 µM
same,GI50,[21],> 25 µM
same,TGI,[21],> 25 µM
same,GI50,[22],> 25 µM
same,TGI,[22],> 25 µM
same,GI50,[23],> 25 µM
same,TGI,[23],> 25 µM
same,GI50,[24],> 25 µM
same,TGI,[24],> 25 µM
same,GI50,[25],> 25 µM
same,TGI,[25],> 25 µM
same,GI50,[26],> 25 µM
same,TGI,[26],> 25 µM
same,GI50,[27],> 25 µM
same,TGI,[27],> 25 µM
same,GI50,[28],> 25 µM
same,TGI,[28],> 25 µM
same,GI50,[29],> 25 µM
same,TGI,[29],> 25 µM
same,GI50,[30],> 25 µM
same,TGI,[30],> 25 µM
same,GI50,[31],> 25 µM
same,TGI,[31],> 25 µM
same,GI50,[32],> 25 µM
same,TGI,[32],> 25 µM
same,GI50,[33],> 25 µM
same,TGI,[33],> 25 µM
same,GI50,[34],> 25 µM
same,TGI,[34],> 25 µM
same,GI50,[35],> 25 µM
same,TGI,[35],> 25 µM
same,GI50,[36],> 25 µM
same,TGI,[36],> 25 µM
same,GI50,[37],> 25 µM
same,TGI,[37],> 25 µM
same,GI50,[38],> 25 µM
same,TGI,[38],> 25 µM
same,GI50,[39],> 25 µM
same,TGI,[39],> 25 µM
same,GI50,[40],> 25 µM
same,TGI,[40],> 25 µM
same,GI50,[41],> 25 µM
same,TGI,[41],> 25 µM
same,GI50,[42],> 25 µM
same,TGI,[42],> 25 µM
same,GI50,[43],> 25 µM
same,TGI,[43],> 25 µM
same,GI50,[44],> 25 µM
same,TGI,[44],> 25 µM
same,GI50,[45],> 25 µM
same,TGI,[45],> 25 µM
same,GI50,[46],> 25 µM
same,TGI,[46],> 25 µM
same,GI50,[47],> 25 µM
same,TGI,[47],> 25 µM
same,GI50,[48],> 25 µM
same,TGI,[48],> 25 µM
same,GI50,[49],> 25 µM
same,TGI,[49],> 25 µM
same,GI50,[50],> 25 µM
same,TGI,[50],> 25 µM
same,GI50,[51],> 25 µM
same,TGI,[51],> 25 µM
same,GI50,[52],> 25 µM
same,TGI,[52],> 25 µM
same,GI50,[53],> 25 µM
same,TGI,[53],> 25 µM
same,GI50,[54],> 25 µM
same,TGI,[54],> 25 µM
same,GI50,[55],> 25 µM
same,TGI,[55],> 25 µM
same,GI50,[56],> 25 µM
same,TGI,[56],> 25 µM
same,GI50,[57],> 25 µM
same,TGI,[57],> 25 µM

# Reference: PubChem BioAssay (NCI)
